In brackets after ≈: the same amount, converted by molar mass.
Key:
MDA-MB-468 cells [1] = test: live/dead (calcein-AM/EthD-1) viability assay, microcarrier format on pBNC device; type: cell-based; details: Homo sapiens, BNC assays, microcarriers, 24 hour doxorubicin exposure, composite of 3 assays, read-out: Computed IC50 of composite dose curve (percent viability from EthD-1 intensity)
Description: Microcarriers cultured with MDA-MB-468 cells were harvested after 5-6 days of static culture with regular media exchanges every 48 hours. Doxorubicin solutions were prepared in fresh, warm media in volumes of 1 mL and added to aliquots of about 200 μL microcarriers and statically incubated for 24 hours at 37° C. Each aliquot was transferred to a sterile 2 ml micro-centrifuge tube where the microcarriers were allowed to settle. After supernatant was removed, microcarriers were rinsed in warm PBS, and incubated in fresh media at 37° C. until assayed. Negative control microcarriers were prepared by replacing this media with 70% methanol and incubating at room temperature for 30 minutes, and then suspended in PBS.
For each assay performed in triplicate (on a prior card embodiment with outlets at the bottom of the card), 4 negative control microcarriers were placed in the 4 outer corners of a 3×4 array of micro-containers through careful manipulation with precision forceps. […]
Images were acquired using a monochrome DVC camera connected to an Olympus BX-2 microscope (Center Valley, Pa.) with a 4× objective at a single focal plane at the top of the microcarriers. […] Intensities for both FITC and TxRed channels were measured separately, using a custom written ImageJ macro that extracts the average of the maxima of a series of line profile scans down each microcarrier. […]

MDA-MB-468 cells [2] = test: live/dead (calcein-AM/EthD-1) viability assay, monolayer 96-well plate, fluorescence plate reader; type: cell-based; details: Homo sapiens, 96-well plate assays, 24 hour doxorubicin exposure, composite of 3 assays, read-out: Computed IC50 of composite dose curve (percent viability from EthD-1 intensity)
Description: Negative and positive controls were included as columns in each plate for the 96-well plate assays. Four negative control microcarriers were included in each assay on the BNC platform and one positive control assay served as the positive control for determining percent viability. Dose curves were plotted using a 5-parameter curve fitting algorithm in MATLAB (MATHWORKS®).
An equivalent viability assay was performed using standard 96-well plates for comparative purposes. Cells were seeded on 3, 96-well plates (CORNING®) at a final seeding density of about 10,000 cells per well. Plates were incubated at 37° C., 5% CO2 for 72 hours before media was exchanged for doxorubicin-containing media and incubated for an additional 24 hours. Negative control columns on each plate were prepared by replacing media with 70% methanol and incubating for 30 minutes at 37° C. Before imaging, all media was removed and cells were washed with warm PBS and replaced with a calcein-AM/EthD-1 solution with the same concentration as in the pBNC assay. […] A single point scan was performed on each well at excitation/emission wavelengths (nm) of 485/530 for calcein-AM and 530/645 for EthD-1.

[3] = test system: cells on spheroid microcarrier; test: doxorubicin uptake, chip versus plate/static, by Z depth; type: cell-based
MDA-MB-468 cells [4] = test: equivalent nuclear assay (fixed cells, DAPI staining) in monolayer
MDA-MB-468 cells [5] = test: nuclear analysis (fixed cells, DAPI staining) of microcarriers on pBNC platform

In the case of `COc1cccc2c1C(=O)c1c(O)c3c(c(O)c1C2=O)C[C@@](O)(C(=O)CO)C[C@@H]3O[C@H]1C[C@H](N)[C@H](O)[C@H](C)O1` [doxorubicin], the IC50 (MDA-MB-468 cells [1]) was 4 µg/mL (≈ 7.36 µM), the IC50 (MDA-MB-468 cells [2]) was 10 µg/mL (≈ 18.4 µM) and the “doxorubicin penetration into spheroid microcarrier cell layers (z-slices)” value ([3]; 2 hours incubation, observed for both chip and plate platforms) was “only able to penetrate through a few outer layers of cells”. For the same molecule, the “doxorubicin uptake, chip compared with static” value ([3]; chip vs static, FIG. 14) was “highly comparable”, the “cells remaining attached (identified nuclear counts)” value (MDA-MB-468 cells [4]; 100 μg/mL doxorubicin, 24 hour exposure, monolayer) was “no monolayer cells remained attached” and the “average uncorrected nuclear compactness” value (MDA-MB-468 cells [4]; monolayer format, increasing doxorubicin concentration) was “increase in the average uncorrected compactness”. For the same molecule, the average nuclear area (MDA-MB-468 cells [4]; monolayer platform, across 10.000-fold doxorubicin concentration range) was “increases for low concentrations of doxorubicin and decreases for higher concentrations”, the “distribution of average DAPI intensity of nuclei” value (MDA-MB-468 cells [4]; monolayer platform, high doxorubicin concentrations (10 μg/mL)) was “shift in the distribution of DAPI intensities towards lower intensities” and the “cells remaining attached (identified nuclear counts)” value (MDA-MB-468 cells [5]; 100 μg/mL doxorubicin, 24 hour exposure, Cytodex I microcarriers) was “some cells remained attached”. The “total cell population (DAPI-stained nuclei / live-dead cell counting)” value (MDA-MB-468 cells [5]; increasing doxorubicin concentrations, both counting methods) was “decrease in total cell population”, the “average uncorrected nuclear compactness” value (MDA-MB-468 cells [5]; microcarrier format, increasing doxorubicin concentration) was “increase in the average uncorrected compactness” and the average nuclear area (MDA-MB-468 cells [5]; microcarrier platform, across 10.000-fold doxorubicin concentration range) was “increases for low concentrations of doxorubicin and decreases for higher concentrations”. The “distribution of average DAPI intensity of nuclei” value (MDA-MB-468 cells [5]; microcarrier platform, high doxorubicin concentrations (10 μg/mL)) was “shift in the distribution of DAPI intensities towards lower intensities”.

— US20140363838A1, “MICROPERFUSION IMAGING PLATFORM” (William Marsh Rice University, priority 2013, published 2014)
